# Patent publication US12213984B2, “Immunoregulatory agent” (KYUSHU UNIVERSITY, NATIONAL UNIVERSITY CORPORATION, priority 2015, dated 2025)
# Legend:
# [1] = tested on: T cells (mouse spleen cells); experiment: lymphocyte migration assay using transwell (CCL21); type: cell-based; settings: CCL21 300 ng/mL
# Experimental: The influence of cholesterol 3-sulfate on the migration of T cells was examined. As a control, an experiment using T cells derived from a DOCK2 knockout mouse was also performed. More specifically, first, mouse spleen cells (1×10^7 cells/mL) were cultured for 1 hour at 37° C. in 0.5% BSA-containing RPMI-1640 (transwell medium) in the presence of cholesterol 3-sulfate at a predetermined concentration or in the presence of DMSO alone (control). The concentration of DMSO was adjusted such that the final concentration of DMSO became 0.2% in all samples. Then, a transwell medium containing chemokine CCL21 (300 ng/mL) and cholesterol 3-sulfate at a predetermined concentration was added to a 24-well plate, and then a transwell (with 5 μm pores, Corning) was set in the well so as to load the pre-cultured cells (1×10^6 cells/100 μL). Subsequently, the cells were incubated for 2 hours at 37° C., and the cells that moved to the lower chamber were collected and stained with PE-labeled anti Thy1.2-antibody (“53-2-1” model, BD Pharmingen). By dividing the number of Thy1.2-positive cells (T cells) in the lower chamber by the number of Thy1.2-positive cells (T cells) put into the transwell, the proportion of T cells having moved (migration of T cells (%)) was calculated. More specifically, first, mouse spleen cells (1×10^7 cells/mL) were cultured for 1 hour at 37° C. in 0.5% BSA-containing RPMI-1640 (transwell medium) in the presence of various steroid compounds at the concentration of 12.5 μM or in the presence of DMSO alone (control). The concentration of DMSO was adjusted such that the final concentration of DMSO became 0.2% in all samples. Then, by performing the transwell assay as described above, the effects of various steroid compounds on the migratory responses of T cells to CCL21 (300 ng/mL) were examined by comparison.
# [2] = tested on: neutrophils isolated from the mouse bone marrow; experiment: neutrophil migration assay 1 (EZ-TAXIScan, fMLP gradient, pretreated cells); type: cell-based; settings: pretreated 1 hour, fMLP gradient 0 to 10 μM
# Experimental: The influence of cholesterol 3-sulfate on a migration speed of neutrophils was examined. More specifically, in the presence of cholesterol 3-sulfate at a predetermined concentration or in the presence of DMSO alone (vehicle control), neutrophils isolated from the mouse bone marrow were incubated for 1 hour at room temperature in 20 mM HEPES-NaOH (pH 7.3)-0.1% BSA-containing RPMI-1640 (Taxiscan medium). The concentration of DMSO was adjusted such that the final concentration of DMSO became 0.2% in all samples.
# Then, the pre-treated cells were loaded on wells of one side of the chamber of EZ-TAXIScan (Effector Cell Institute, Inc). After 1 μL of fMLP in a Taxiscan medium was added at a concentration of 10 μM to wells of the other side 260 μm distant from the above wells, neutrophils were allowed to migrate in the presence of a fMLP gradient (0 to 10 μM). Phase-contrast micrographs were obtained for 20 minutes at an interval of 30 seconds, and the trace and speed of neutrophils were analyzed by using manual tracking of the Image J program and a chemotaxis and migration tool.
smiles,measurement,setting,value
"CC(C)CCC[C@@H](C)[C@H]1CC[C@H]2[C@@H]3CC=C4C[C@@H](OS(=O)(=O)O)CC[C@]4(C)[C@H]3CC[C@]12C [C3S, cholesterol 3-sulfate]",migration of T cells in response to CCL21,[1]; 6.25 μM,inhibited to the level of T cells derived from DOCK2 knockout mouse
same,migration of T cells in response to CCL21,"[1]; 12.5 μM, Experimental Example 6",specifically inhibits the migration of T cells
same,migration of T cells in response to CCL21,"[1]; predetermined concentrations, Experimental Example 5",markedly inhibited
same,migration of neutrophils (migration speed) in response to fMLP,[2],markedly inhibited
